# In patent publication US20240374598A1, “INHIBITORS OF HUMAN IMMUNODEFICIENCY VIRUS REPLICATION” (ViiV HEALTHCARE UK (NO.5) LIMITED, priority 2018, published 2024):
# Key:
# [1] = test system: recombinant NL4-3 virus (nef section replaced with Renilla luciferase gene) in MT-2 cells; assay: HIV cell culture assay (antiviral activity, luciferase readout); type: cell-based; conditions: NL43, MT-2 cells infected for 4-5 days with recombinant NL4-3 Renilla luciferase virus
# Description: HIV cell culture assay—MT-2 cells, 293T cells and the proviral DNA clone of NL4-3 virus were obtained from the NIH AIDS Research and Reference Reagent Program. MT-2 cells were propagated in RPMI 1640 media supplemented with 10% heat inactivated fetal bovine serum (FBS), […]. The 293T cells were propagated in DMEM media supplemented with 10% heat inactivated FBS, […]. A recombinant NL4-3 proviral clone, in which a section of the nef gene was replaced with the Renilla luciferase gene, was used to make the reference virus used in these studies. The recombinant virus was prepared through transfection of the recombinant NL4-3 proviral clone into 293T cells using Transit-293 Transfection Reagent from Mirus Bio LLC (Madison, WI). Supernatent was harvested after 2-3 days and the amount of virus present was titered in MT-2 cells using luciferase enzyme activity as a marker by measuring luciferase enzyme activity. Luciferase was quantitated using the EnduRen Live Cell Substrate from Promega (Madison, WI). Antiviral activities of compounds toward the recombinant virus were quantified by measuring luciferase activity in MT-2 cells infected for 4-5 days with the recombinant virus in the presence of serial dilutions of the compound.
# The 50% effective concentration (EC50) was calculated by using the exponential form of the median effect equation where (Fa)=1/[1+(ED50/drug conc.)m] (Johnson VA, Byington RT. Infectivity Assay. In Techniques in HIV Research. ed. Aldovini A, Walker BD. 71-76. New York: Stockton Press. 1990). The 50% inhibitory concentration (EC50) was calculated by using the exponential form of the median effect equation where percent inhibition=1/[1+(EC50/drug concentration)m], where m is a parameter that reflects the slope of the concentration-response curve.
# [2] = Compound cytotoxicity, XTT-based colorimetric assay; type: cell-based; conditions: human; uninfected MT2 cells, day 4, XTT assay
# Description: Compound cytotoxicity and the corresponding CC50 values were determined using the same protocol as described in the antiviral assay except that uninfected cells were used. Cytotoxicity was assessed on day 4 in uninfected MT2 cells by using a XTT (2,3-bis[2-Methoxy-4-nitro-5-sulfophenyl]-2H-tetrazolium-5-carboxyanilide inner salt)-based colorimetric assay (Sigma-Aldrich, St Louis, Mo).
Structure (SMILES),EC50 [1] [nM],CC50 at 4 day [2] [nM]
"COc1nc2nc([C@H](Cc3cc(F)cc(F)c3)NC(=O)Cn3nc(C(F)F)c4c3C(F)(F)C3CC43)n(-c3ccc(Cl)c4c(NS(C)(=O)=O)nn(C)c34)c(=O)c2cc1Cl (stereo in doubt) [Example 37, N—((S)-1-(6-chloro-3-(4-chloro-1-methyl-3-(methylsulfonamido)-1H-indazol-7-yl)-7-methoxy-4-oxo-3,4-dihydropyrido[2,3-d]pyrimidin-2-yl)-2-(3,5-difluorophenyl)ethyl)-2-((3bS,4aR)-3-(difluoromethyl)-5,5-difluoro-3b,4,4a,5-tetrahydro-1H-cyclopropa[3,4]cyclopenta[1,2-c]pyrazol-1-yl)acetamide]",0.044,> 1000
"CC(C)Oc1ccc2c(=O)n(-c3ccc(Cl)c4c(NS(C)(=O)=O)nn(C)c34)c([C@H](Cc3cc(F)cc(F)c3)NC(=O)Cn3nc(C(F)F)c4c3C(F)(F)C3CC43)nc2n1 (stereo in doubt) [Example 38, N—((S)-1-(3-(4-chloro-1-methyl-3-(methylsulfonamido)-1H-indazol-7-yl)-7-isopropoxy-4-oxo-3,4-dihydropyrido[2,3-d]pyrimidin-2-yl)-2-(3,5-difluorophenyl)ethyl)-2-((3bS,4aR)-3-(difluoromethyl)-5,5-difluoro-3b,4,4a,5-tetrahydro-1H-cyclopropa[3,4]cyclopenta[1,2-c]pyrazol-1-yl)acetamide]",0.045,> 1000
"COc1cnc2c(=O)n(-c3ccc(Cl)c4c(NS(C)(=O)=O)nn(C)c34)c([C@H](Cc3cc(F)cc(F)c3)NC(=O)Cn3nc(C(F)F)c4c3C(F)(F)C3CC43)nc2c1 (stereo in doubt) [Example 39, N—((S)-1-(3-(4-chloro-1-methyl-3-(methylsulfonamido)-1H-indazol-7-yl)-7-methoxy-4-oxo-3,4-dihydropyrido[3,2-d]pyrimidin-2-yl)-2-(3,5-difluorophenyl)ethyl)-2-((3bS,4aR)-3-(difluoromethyl)-5,5-difluoro-3b,4,4a,5-tetrahydro-1H-cyclopropa[3,4]cyclopenta[1,2-c]pyrazol-1-yl)acetamide]",0.016,> 1000
"Cn1nc(NS(C)(=O)=O)c2c(Cl)ccc(-n3c([C@H](Cc4cc(F)cc(F)c4)NC(=O)Cn4nc(C(F)F)c5c4C(F)(F)[C@@H]4C[C@H]54)nc4cc(Br)ccc4c3=O)c21 [Example 1, N—((S)-1-(7-bromo-3-(4-chloro-1-methyl-3-(methylsulfonamido)-1H-indazol-7-yl)-4-oxo-3,4-dihydroquinazolin-2-yl)-2-(3,5-difluorophenyl)ethyl)-2-((3bS,4aR)-3-(difluoromethyl)-5,5-difluoro-3b,4,4a,5-tetrahydro-1H-cyclopropa[3,4]cyclopenta[1,2-c]pyrazol-1-yl)acetamide]",0.046,> 1000
"Cn1nc(NS(C)(=O)=O)c2c(Cl)ccc(-n3c([C@H](Cc4cc(F)cc(F)c4)NC(=O)Cn4nc(C(F)F)c5c4C(F)(F)[C@@H]4C[C@H]54)nc4cc(O)ccc4c3=O)c21 [Example 4, N—((S)-1-(3-(4-chloro-1-methyl-3-(methylsulfonamido)-1H-indazol-7-yl)-7-hydroxy-4-oxo-3,4-dihydroquinazolin-2-yl)-2-(3,5-difluorophenyl)ethyl)-2-((3bS,4aR)-3-(difluoromethyl)-5,5-difluoro-3b,4,4a,5-tetrahydro-1H-cyclopropa[3,4]cyclopenta[1,2-c]pyrazol-1-yl)acetamide]",0.273,> 1000
"COc1ccc2c(=O)n(-c3ccc(Cl)c4c(NS(C)(=O)=O)nn(C)c34)c([C@H](Cc3cc(F)cc(F)c3)NC(=O)Cn3ccc(C(C)C)n3)nc2c1 [Example 5, (S)—N-(1-(3-(4-chloro-1-methyl-3-(methylsulfonamido)-1H-indazol-7-yl)-7-methoxy-4-oxo-3,4-dihydroquinazolin-2-yl)-2-(3,5-difluorophenyl)ethyl)-2-(3-isopropyl-1H-pyrazol-1-yl)acetamide]",0.758,> 1000
"COc1ccc2c(=O)n(-c3ccc(Cl)c4c(NS(C)(=O)=O)nn(C)c34)c([C@H](Cc3cc(F)cc(F)c3)NC(=O)Cn3ccc(C4CC4)n3)nc2c1 [Example 6, (S)—N-(1-(3-(4-chloro-1-methyl-3-(methylsulfonamido)-1H-indazol-7-yl)-7-methoxy-4-oxo-3,4-dihydroquinazolin-2-yl)-2-(3,5-difluorophenyl)ethyl)-2-(3-cyclopropyl-1H-pyrazol-1-yl)acetamide]",0.347,> 1000
"COc1ccc2c(=O)n(-c3ccc(Cl)c4c(NS(C)(=O)=O)nn(C)c34)c([C@H](Cc3cc(F)cc(F)c3)NC(=O)Cn3ccc(C4CCC4)n3)nc2c1 [Example 7, (S)—N-(1-(3-(4-chloro-1-methyl-3-(methylsulfonamido)-1H-indazol-7-yl)-7-methoxy-4-oxo-3,4-dihydroquinazolin-2-yl)-2-(3,5-difluorophenyl)ethyl)-2-(3-cyclobutyl-1H-pyrazol-1-yl)acetamide]",0.899,> 1000
"COc1cc(F)c2c(=O)n(-c3ccc(Cl)c4c(NS(=O)(=O)C5CC5)nn(CC(F)F)c34)c([C@H](Cc3cc(F)cc(F)c3)NC(=O)Cn3nc(C(F)F)c4c3C(F)(F)[C@@H]3C[C@H]43)nc2c1 [Example 8, N—((S)-1-(3-(4-chloro-3-(cyclopropanesulfonamido)-1-(2,2-difluoroethyl)-1H-indazol-7-yl)-5-fluoro-7-methoxy-4-oxo-3,4-dihydroquinazolin-2-yl)-2-(3,5-difluorophenyl)ethyl)-2-((3bS,4aR)-3-(difluoromethyl)-5,5-difluoro-3b,4,4a,5-tetrahydro-1H-cyclopropa[3,4]cyclopenta[1,2-c]pyrazol-1-yl)acetamide]",0.15,> 1000
"Cn1nc(NS(C)(=O)=O)c2c(Cl)ccc(-n3c([C@H](Cc4cc(F)cc(F)c4)NC(=O)Cn4nc(C(F)F)c5c4C(F)(F)[C@@H]4C[C@H]54)nc4cc(OCCCF)ccc4c3=O)c21 [Example 9, N—((S)-1-(3-(4-chloro-1-methyl-3-(methylsulfonamido)-1H-indazol-7-yl)-7-(3-fluoropropoxy)-4-oxo-3,4-dihydroquinazolin-2-yl)-2-(3,5-difluorophenyl)ethyl)-2-((3bS,4aR)-3-(difluoromethyl)-5,5-difluoro-3b,4,4a,5-tetrahydro-1H-cyclopropa[3,4]cyclopenta[1,2-c]pyrazol-1-yl)acetamide]",0.049,> 1000
"CC(C)(C)c1ccc2c(=O)n(-c3ccc(Cl)c4c(NS(C)(=O)=O)nn(CC(F)(F)F)c34)c([C@H](Cc3cc(F)cc(F)c3)NC(=O)Cn3nc(C(F)F)c4c3C(F)(F)[C@@H]3C[C@H]43)nc2c1 [Example 28, N—((S)-1-(7-(tert-butyl)-3-(4-chloro-3-(methylsulfonamido)-1-(2,2,2-trifluoroethyl)-1H-indazol-7-yl)-4-oxo-3,4-dihydroquinazolin-2-yl)-2-(3,5-difluorophenyl)ethyl)-2-((3bS,4aR)-3-(difluoromethyl)-5,5-difluoro-3b,4,4a,5-tetrahydro-1H-cyclopropa[3,4]cyclopenta[1,2-c]pyrazol-1-yl)acetamide]",–,> 1000
